This is an account of results in patent US20090264401A1, “SUBSTITUTED PYRIMIDIN-5-CARBOXAMIDES 281” (AstraZeneca AB, priority 2008, published 2009).

The assay concerns the target T1, human 11βHSD1 enzyme (Homo sapiens, UniProt P28845).
T1 construct: baculovirus expressed N terminal 6-His tagged full length human 11βHSD1 enzyme; 6-His (N); made in house
Put plainly: 11βHSD1 cortisone to cortisol conversion, competitive HTRF assay. Particulars: for inhibition at 30 µM: human 11-βHSD, test concentration of 30 μM of compound; for IC50: recombinant N terminal 6-His tagged full length human 11βHSD1, cortisone 160 nM, 25 minutes at 37° C. The class given is biochemical. The procedure: The evaluation of compounds described herein was carried out using a baculovirus expressed N terminal 6-His tagged full length human 11βHSD1 enzyme(*1). The enzyme was purified from a detergent solubilised cell lysate, using a copper chelate column. Inhibitors of 11βHSD1 reduce the conversion of cortisone to cortisol, which is identified by an increase in signal, in the above assay.
Compounds to be tested were dissolved in dimethyl sulphoxide (DMSO) to 10 mM and diluted further in assay buffer containing 1% DMSO to 10 fold the final assay concentration. Diluted compounds were then plated into black 384 well plates (Matrix, Hudson N.H., USA).
Fluorescence at 665 nm and 620 nm was measured and the 665 nm:620 nm ratio calculated using an Envision plate reader.
In general terms: In TR-FRET formats the signal depends on donor and acceptor labels being close together.

T1 sequence (P28845 whole entry): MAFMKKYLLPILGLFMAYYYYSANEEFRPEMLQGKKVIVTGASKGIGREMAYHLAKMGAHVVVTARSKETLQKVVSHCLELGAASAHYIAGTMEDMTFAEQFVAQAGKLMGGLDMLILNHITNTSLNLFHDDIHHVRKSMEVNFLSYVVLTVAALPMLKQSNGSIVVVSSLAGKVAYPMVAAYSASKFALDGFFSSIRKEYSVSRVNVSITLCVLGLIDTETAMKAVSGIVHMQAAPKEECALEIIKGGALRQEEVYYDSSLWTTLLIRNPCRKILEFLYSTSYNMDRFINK

As usually defined, the inhibition is the drop in the measured response relative to a control, in per cent. One may read the IC50 as the concentration at which inhibition is half-maximal. `O=C(N[C@H]1C2CC3CC1C[C@@](O)(C3)C2)c1cncnc1C1CC1` [Example 3, 4-cyclopropyl-N-[(2r,5s)-5-hydroxyadamantan-2-yl]pyrimidine-5-carboxamide]: the inhibition at 30 µM is 106% and the IC50 was determined as 0.37 µM.
On to `CC(C)(C)c1ncncc1C(=O)N[C@H]1C2CC3CC1C[C@@](O)(C3)C2` [Example 7], for which the inhibition at 30 µM was 88.3%.
Take `CSc1ncc(C(=O)N[C@H]2C3CC4CC2C[C@@](O)(C4)C3)c(C2CC2)n1` [Example 11, 4-Cyclopropyl-N-[(2r,5s)-5-hydroxyadamantan-2-yl]-2-methylsulfanyl-pyrimidine-5-carboxamide]: the inhibition at 30 µM was 97.5% and the IC50 worked out at 0.07 µM.
`Cc1ncc(C(=O)NC2C3CC4CC(C3)CC2C4)c(C2CC2)n1` (centres unmarked) [Example 12, N-(2-adamantyl)-4-cyclopropyl-2-methyl-pyrimidine-5-carboxamide]: the inhibition at 30 µM turned out to be 97.3% and the IC50 was found to be 0.045 µM.
Regarding `O=C(NC1C2CC3CC(C2)CC1C3)c1cnc(N2CCOCC2)nc1C1CC1` (centres unmarked) [Example 13, N-(2-adamantyl)-4-cyclopropyl-2-morpholino-pyrimidine-5-carboxamide], the inhibition at 30 µM amounted to 112% and the IC50 came to 0.014 µM.
Regarding `CC(C)(C)c1nc(N2CCOCC2)ncc1C(=O)NC1C2CC3CC(C2)CC1C3` (centres unmarked) [Example 14, N-(2-Adamantyl)-4-tert-butyl-2-morpholin-4-ylpyrimidine-5-carboxamide], the inhibition at 30 µM came out at 108%.
`Cc1nc(N2CCOCC2)ncc1C(=O)NC1C2CC3CC(C2)CC1C3` (centres unmarked) [Example 15, N-(2-adamantyl)-4-methyl-2-morpholin-4-ylpyrimidine-5-carboxamide]: the inhibition at 30 µM came to 95.4%.
Regarding `CCCSc1ncc(C(=O)N[C@H]2C3CC4CC2C[C@@](O)(C4)C3)c(SCCC)n1` [Example 16, N-[(2r,5s)-5-hydroxyadamantan-2-yl]-2,4-bis(propylsulfanyl)pyrimidine-5-carboxamide], the inhibition at 30 µM is 95.8% and the IC50 stood at 0.002 µM.
On to `CCCSc1ncc(C(=O)N[C@H]2C3CC4CC2C[C@@](O)(C4)C3)c(N(C)C)n1` [Example 18, 4-Dimethylamino-N-[(2r,5s)-5-hydroxyadamantan-2-yl]-2-propylsulfanylpyrimidine-5-carboxamide], for which the inhibition at 30 µM came to 98.5% and the IC50 turned out to be 0.003 µM.
Take `CCCSc1nc(N2CCC[C@@H](CC(=O)OC)C2)ncc1C(=O)NC1CCCCC1` [Example 19, (S)-Methyl 2-(1-(5-(cyclohexylcarbamoyl)-4-(propylthio)pyrimidin-2-yl)piperidin-3-yl)acetate]: the inhibition at 30 µM was determined as 100% and the IC50 is 0.014 µM.
The corresponding values for `CCCSc1nc(N2CCC[C@@H](CC(=O)O)C2)ncc1C(=O)NC1CCCCC1` [Example 20, {(3S)-1-[5-(Cyclohexylcarbamoyl)-4-(propylthio)pyrimidin-2-yl]piperidin-3-yl}acetic acid] are 97.6% and 0.002 µM.
Regarding `CCCSc1ncc(C(=O)N[C@H]2C3CC4CC2C[C@@](O)(C4)C3)c(NC)n1` [Example 22, N-[(2r,5s)-5-hydroxyadamantan-2-yl]-4-methylamino-2-propylsulfanylpyrimidine-5-carboxamide], the inhibition at 30 µM stood at 89.5%.
In the case of `CCCSc1nc(N2C[C@@H](C)O[C@@H](C)C2)ncc1C(=O)N[C@H]1C2CC3CC1C[C@@](O)(C3)C2` [Example 23, 2-[(2s,6r)-2,6-Dimethylmorpholin-4-yl]-N-[(2r,5s)-5-hydroxyadamantan-2-yl]-4-propylsulfanylpyrimidine-5-carboxamide], the inhibition at 30 µM worked out at 97.4%.
`CCCSc1ncc(C(=O)N[C@H]2C3CC4CC2C[C@@](O)(C4)C3)c(N2C[C@@H](C)O[C@@H](C)C2)n1` [Example 24, 4-[(2S,6R)-2,6-Dimethylmorpholin-4-yl]-N-[(2r,5s)-5-hydroxyadamantan-2-yl]-2-propylsulfanylpyrimidine-5-carboxamide]: the inhibition at 30 µM amounted to 68%.
Consider `CCCSc1ncc(C(=O)N[C@H]2C3CC4CC2C[C@@](O)(C4)C3)c(N2CCN(C(C)=O)CC2)n1` [Example 25, 4-(4-Acetylpiperazin-1-yl)-N-[(2r,5 s)-5-hydroxyadamantan-2-yl]-2-propylsulfanylpyrimidine-5-carboxamide], for which the inhibition at 30 µM was 101%.
On the same count and under the same terms, as for `CCCSc1nc(N2CCN(C(C)=O)CC2)ncc1C(=O)N[C@H]1C2CC3CC1C[C@@](O)(C3)C2` [Example 26, 2-(4-Acetylpiperazin-1-yl)-N-[(2r,5 s)-5-hydroxyadamantan-2-yl]-4-propylsulfanylpyrimidine-5-carboxamide], the figure is 89%.
The same measure, in the same setting: as for `CCCSc1nc(N2CCN(C(C)=O)CC2)ncc1C(=O)NC1C2CC3CC(C2)CC1C3` (centres unmarked) [Example 27, 2-(4-Acetylpiperazin-1-yl)-N-(2-adamantyl)-4-propylsulfanyl-pyrimidine-5-carboxamide], the figure is 95.5%; as for `CCCSc1nc(N2CCN(S(C)(=O)=O)CC2)ncc1C(=O)NC1C2CC3CC(C2)CC1C3` (centres unmarked) [Example 28, N-(2-adamantyl)-2-(4-methylsulfonylpiperazin-1-yl)-4-propylsulfanyl-pyrimidine-5-carboxamide], 103%.
Take `CCCSc1nc(N2CCN(C(=O)N(C)C)CC2)ncc1C(=O)NC1C2CC3CC(C2)CC1C3` (centres unmarked) [Example 29, N-(2-adamantyl)-2-[4-(dimethylcarbamoyl)piperazin-1-yl]-4-propylsulfanyl-pyrimidine-5-carboxamide]: the inhibition at 30 µM came out at 100% and the 50% inhibitory concentration (IC50) turned out to be 0.013 µM.
Turning to `COc1ncc(C(=O)N[C@H]2C3CC4CC2C[C@@](O)(C4)C3)c(C2CC2)n1` [Example 33, 4-Cyclopropyl-N-[(2r,5s)-5-hydroxyadamantan-2-yl]-2-methoxypyrimidine-5-carboxamide], the inhibition at 30 µM was found to be 97.5% and the IC50 worked out at 0.033 µM.
As to `CNc1ncc(C(=O)N[C@H]2C3CC4CC2C[C@@](O)(C4)C3)c(C2CC2)n1` [Example 34, 4-Cyclopropyl-N-[(2r,5s)-5-hydroxyadamantan-2-yl]-2-methylaminopyrimidine-5-carboxamide], the inhibition at 30 µM is 98%.
As for `O=C(N[C@H]1C2CC3CC1C[C@@](O)(C3)C2)c1cnc(N2CCSCC2)nc1C1CC1` [Example 35, 4-Cyclopropyl-N-[(2r,5s)-5-hydroxyadamantan-2-yl]-2-thiomorpholin-4-ylpyrimidine-5-carboxamide], the inhibition at 30 µM was 106%.
Take `O=C(N[C@H]1C2CC3CC1C[C@@](O)(C3)C2)c1cnc(N2CC[S+]([O-])CC2)nc1C1CC1` [Example 36, 4-Cyclopropyl-N-[(2r,5s)-5-hydroxyadamantan-2-yl]-2-(1-oxo-1,4-thiazinan-4-yl)pyrimidine-5-carboxamide]: the inhibition at 30 µM was 99.5%.
Turning to `O=C(N[C@H]1C2CC3CC1C[C@@](O)(C3)C2)c1cnc(N2CCS(=O)(=O)CC2)nc1C1CC1` [Example 37, 4-Cyclopropyl-2-(1,1-dioxo-1,4-thiazinan-4-yl)-N-[(2r,5s)-5-hydroxyadamantan-2-yl]pyrimidine-5-carboxamide], the inhibition at 30 µM was 93.5%.
As to `O=C(N[C@H]1C2CC3CC1C[C@@](O)(C3)C2)c1cnc(N2CCSCC2)nc1C1CCC1` [Example 41, 4-Cyclobutyl-N-[(2r,5s)-5-hydroxyadamantan-2-yl]-2-thiomorpholin-4-ylpyrimidine-5-carboxamide], the inhibition at 30 µM amounted to 94%.
Turning to `C[C@@H]1CN(c2ncc(C(=O)N[C@H]3C4CC5CC3C[C@@](O)(C5)C4)c(C3CC3)n2)C[C@H](C)O1` [Example 42, 4-Cyclopropyl-2-(2,6-dimethylmorpholin-4-yl)-N-[(2r,5s)-5-hydroxyadamantan-2-yl]pyrimidine-5-carboxamide], the inhibition at 30 µM worked out at 99.4%.
For the compound `O=C(N[C@H]1C2CC3CC1C[C@@](O)(C3)C2)c1cnc(N2CCCSCC2)nc1C1CC1` [Example 43, 4-Cyclopropyl-N-[(2r,5s)-5-hydroxyadamantan-2-yl]-2-(1,4-thiazepan-4-yl)pyrimidine-5-carboxamide], the inhibition at 30 µM worked out at 99.2%.
Take `O=C(N[C@H]1C2CC3CC1C[C@@](O)(C3)C2)c1cnc(N2CCC[S+]([O-])CC2)nc1C1CC1` (some centres unmarked) [Example 44, 4-Cyclopropyl-N-[(2r,5s)-5-hydroxyadamantan-2-yl]-2-(1-oxo-1,4-thiazepan-4-yl)pyrimidine-5-carboxamide]: the inhibition at 30 µM turned out to be 98%.
The same measure, in the same setting: as for `O=C(N[C@H]1C2CC3CC1C[C@@](O)(C3)C2)c1cnc(N2CCCS(=O)(=O)CC2)nc1C1CC1` [Example 45, 4-Cyclopropyl-2-(1,1-dioxo-1,4-thiazepan-4-yl)-N-[(2r,5s)-5-hydroxyadamantan-2-yl]pyrimidine-5-carboxamide], the figure is 98.5%.
Consider `O=C(N[C@H]1C2CC3CC1C[C@@](O)(C3)C2)c1cnc(N2CC3CC2CS3)nc1C1CC1` [Example 46, 4-Cyclopropyl-N-[(2r,5s)-5-hydroxyadamantan-2-yl]-2-(3-thia-6-azabicyclo[2.2.1]heptan-6-yl)pyrimidine-5-carboxamide], for which the inhibition at 30 µM came to 104%.
On the same count and under the same terms, in the case of `O=C(N[C@H]1C2CC3CC1C[C@@](O)(C3)C2)c1cnc(N2CC3CC2C[S+]3[O-])nc1C1CC1` (some centres unmarked) [Example 47, 4-Cyclopropyl-N-[(2r,5s)-5-hydroxyadamantan-2-yl]-2-(3-oxo-3 ?4-thia-6-azabicyclo[2.2.1]heptan-6-yl)pyrimidine-5-carboxamide] it was 97.3%.
